Common to all, as to type: functional, cell-based
Conditions in all cases: oocyte

In data set [1] the target is T1, Solute carrier family 22 member 7 (Homo sapiens, UniProt Q9Y694).
T1 sequence (Q9Y694 whole entry): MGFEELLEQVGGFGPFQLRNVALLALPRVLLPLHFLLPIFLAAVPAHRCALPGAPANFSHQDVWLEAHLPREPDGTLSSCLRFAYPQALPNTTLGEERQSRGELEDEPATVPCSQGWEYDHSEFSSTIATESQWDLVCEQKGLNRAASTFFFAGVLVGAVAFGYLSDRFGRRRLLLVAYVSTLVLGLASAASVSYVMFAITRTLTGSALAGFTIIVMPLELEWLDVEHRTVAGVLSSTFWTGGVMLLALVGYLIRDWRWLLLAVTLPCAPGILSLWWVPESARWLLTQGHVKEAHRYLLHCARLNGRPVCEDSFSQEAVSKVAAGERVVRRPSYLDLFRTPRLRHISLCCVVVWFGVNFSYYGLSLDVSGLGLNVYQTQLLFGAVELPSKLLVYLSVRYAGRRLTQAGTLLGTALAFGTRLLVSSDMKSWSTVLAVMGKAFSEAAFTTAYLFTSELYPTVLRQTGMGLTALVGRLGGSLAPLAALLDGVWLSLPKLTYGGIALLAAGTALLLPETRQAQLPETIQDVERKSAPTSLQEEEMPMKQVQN
Nature of the data set: TP_TRANSPORTER: inhibition of theophylline uptake in OAT2-expressing oocytes.

For data set [2], the target named is T1, Solute carrier family 22 member 7. Nature of the data set: TP_TRANSPORTER: uptake in OAT2-expressing oocytes.
Data set [3] has the same target. Nature of the data set: TP_TRANSPORTER: inhibition of erythromycin uptake in OAT2-expressing oocytes.

Activity data for three compounds are collected here from ChEMBL document CHEMBL2074379, “Possible involvement of organic anion transporter 2 on the interaction of theophylline with erythromycin in the human liver” (Drug Metab Dispos, 2005).

As for `CC[C@H]1OC(=O)[C@H](C)[C@@H](O[C@H]2C[C@@](C)(OC)[C@@H](O)[C@H](C)O2)[C@H](C)[C@@H](O[C@@H]2O[C@H](C)C[C@H](N(C)C)[C@H]2O)[C@](C)(OC)C[C@@H](C)C(=O)[C@H](C)[C@@H](O)[C@]1(C)O` [CLARITHROMYCIN], the Activity result in data set [1] was “inhibitor []”.

In the case of `CC[C@H]1OC(=O)[C@H](C)[C@@H](O[C@H]2C[C@@](C)(OC)[C@@H](O)[C@H](C)O2)[C@H](C)[C@@H](O[C@@H]2O[C@H](C)C[C@H](N(C)C)[C@H]2O)[C@](C)(O)C[C@@H](C)C(=O)[C@H](C)[C@@H](O)[C@]1(C)O` [ERYTHROMYCIN], the Activity result was “substrate []” in data set [2] and “inhibitor []” in data set [1].

For `Cn1c(=O)c2[nH]cnc2n(C)c1=O.O` [THEOPHYLLINE], the Activity entry is “substrate []” in data set [2] and “inhibitor []” in data set [3].
